# According to patent US20250295609A1, “COMPOUND HAVING ANTI-ANDROGEN RECEPTOR ACTIVITY, AND USE THEREOF” (NANJING MINOVA PHARMACEUTICAL CO., LTD., priority 2022, published 2025):
# Test system: human prostate cancer cells 22Rvl
# Assay: Cell viability inhibition assay (CTG) on 22Rvl cells
# Type: cell-based
# Details: 120 h, no DHT, 5 days, read-out: Inhibitory activity against human prostate cancer cells 22Rvl IC50
# Source text: Human prostate cancer cells LNCaP and human prostate cancer cells 22Rvl are present in patients with prostate cancer. An androgen, DHT, is able to promote the growth of human prostate cancer cells LNCaP. Using the cell model described above was intended to study the inhibitory effects of the compounds of the present disclosure on the growth of human prostate cancer cells (human prostate cancer cells LNCaP and human prostate cancer cells 22Rvl) in the presence or absence of DHT. […]
# The medium in the culture dish was discarded, and 5 mL of trypsin was added for digestion for about 3 mins. […] 1 mL of the cells was taken and counted, and the cell viability was detected. […]
# After the cells were attached to the well, for the human prostate cancer cells LNCaP group, test compounds (0.1 μM, 0.3 μM, 1 μM, 3 μM, 10 μM, and 30 μM) and DHT (1 nM, inducing the expression of AR) were added to the 96-well plate, and the plate was incubated for another 5 days; for the human prostate cancer cells 22Rvl group, test compounds (0.1 μM, 0.3 μM, 1 μM, 3 μM, 10 μM, and 30 μM) were added to the 96-well plate, and the plate was incubated for another 5 days. […] The cell viability was detected by using a CTG method. […] The fluorescence value in each well was then detected. […] For data analysis, an assay background value was subtracted from all data points, which was determined in wells containing the medium but no cells. […]
smiles,measurement,value
COc1ccc(/C=C/C(=O)C2(C(=O)/C=C/c3ccc(OC)c(OC)c3)CCC(F)(F)CC2)cc1OC [Compound 8],IC50,0.35 µM
